# Where “and” joins values, the source holds several entries; their conditions need not be identical. Identical values can stand only once.
# Experiments:
# [1] = tested on: Ramos cells; assay: In vitro cytotoxicity assay (CCK-8); type: cell-based; settings: about 72 hours incubation, parallel detections 1 and 2
# Source text: Experiment 2: In vitro Cytotoxicity Assay
# FBS, purchased from Lonsera, product number S711-001S;
# Streptomycin/Penicillin Dual Antibody, purchased from HyClone, Lot: SV30010;
# DPBS (Dulbecco's Phosphate Buffer Solution) was purchased from Gibco, product number 14190-136;
# CCK-8 reagent, purchased from Biolite, product number 35004.
# Ramos cells were purchased from COBIOER BIOSCIENCES CO., LTD.
# Cell culture and plating: Ramos cells with viability greater than 80% in the logarithmic growth phase up to 30 generations were selected for the experiment. Ramos cells were removed from culture flasks and added to 50 mL centrifuge tubes and blown to mix. 1000 rpm (≈188g) centrifugation was performed for 5-6 minutes. The supernatant was discarded and the cells were resuspended with the appropriate volume of diluent. […]
# Plate reading: Load the plate into the enzyme labeling instrument and read the plate with 450 nm as the reading wavelength and 650 nm as the reference wavelength.
# Data processing: The IC50 value was calculated using a four-parameter fitting model with the concentration value as the horizontal coordinate and the difference between the absorbance value at 450 nm minus the absorbance value at 650 nm as the vertical coordinate.
# [2] = tested on: Ramos cells; assay: Internalization efficacy by flow cytometry, Ramos cells; type: cell-based; settings: 10 μg/mL, 37° C. 2 h, FIG. 2C
# Description: (§1) Experiment 1: Method for Internalization Efficacy of Antibody-Drug Conjugate (TRS005) by Flow Cytometry
# (§2) Cell preparation: take logarithmic growth phase Raji cells or Ramos cells, centrifuge at 1000 rpm for 5 minutes, resuspend using DPBS, adjust the density of live cells to 2×10^6 cells/mL, and divide into 1.5 mL centrifuge tubes, 1 mL/tube.
# (§3) Sample dilution: The sample to be tested (TRS005 with a DAR of approximately 4.2) was diluted to 1000 μg/mL, 10 μL was added to each 1 mL of cell suspension, and blown and mixed to make the final concentration of the sample 10 μg/mL.
# (§4) Incubation the cell suspension to which the samples were added was placed on ice and ice-bath for 30 minutes. […]
# (§5) Cells from the negative control group treated with ice bath were gating and the average fluorescence intensity of cells in each tube at FL1 was recorded. […]
# (§6) The percentage of endocytosis of the samples was calculated based on the average fluorescence intensity according to the following formula.
# (§7) Internalization efficacy ratio %=(mean fluorescence intensity of negative control group−mean fluorescence intensity of experimental group)/mean fluorescence intensity of negative control group×100%.
# [3] = tested on: Raji cells; assay: Internalization efficacy by flow cytometry, Raji cells; type: cell-based; settings: 10 μg/mL, 37° C. 2 h, FIG. 2D
# Description: as §1, §2, §3, §4, §5, §6, §7
# [4] = tested on: Daudi cell xenografts tumor; assay: In vivo anti-tumor activity test, Daudi graft tumor; parameters: species or system BALB/c nude mice; settings: tail vein, 6 injections over 21 days, two batches (first and second), listed as TRS005
# Source text: Experiment 3 In vivo Anti-Tumor Activity Test
# 1. Test animals and housing environment
# Species: BALB/c nude mice
# Gender of animals: male mice.
# Age at acquisition: 6-8 weeks; Body weight at the beginning of the experiment: 18˜20 g.
# Housing environment: SPF grade.
# Daudi cells were purchased from the cell bank of the Type Culture Collection of the Chinese Academy of Sciences.
# 3. TEST SAMPLE: The Test Sample was Selected From Two Batches of the Product Prepared in Example 2.
# Under aseptic conditions of 5% CO2 and 37° C., Daudi cells were cultured with PRMI1640 medium containing 10% fetal bovine serum, respectively, and expanded to 5.0×10^8 cells. Cells were collected by centrifugation and mixed 1:1 with Matrix gel and inoculated subcutaneously into the right side of the rib cage of BALB/c nude mice at 1×10^7 cells/200 μl/animal.
# When the mean tumor volume reached 100 mm3, the group was randomized: […]
# There were 10 nude mice in each group. Then the administration of the drug was started by tail vein administration, and the body weight of BALB/c nude mice and the long and short diameters of the tumors were measured, and recorded during the administration. […]
# Tumor volume and Tumor weight were expressed as Mean±Standard Error of the Mean (Mean±SEM). Statistical tests were analyzed by one-way analysis of variance (ANOVA), with p<0.05 considered significant and p<0.01 considered highly significant.
substance,measurement,setting,value
Example 2: Anti-CD20 antibody TRS001 (rituximab biosimilar) conjugated to MMAE via maleimidocaproyl-valine-citrulline-p-aminobenzyloxycarbonyl linker; preferred DAR distribution,IC50,[1],0.0589 µg/mL and 0.0648 µg/mL
same,internalization efficacy,[2],good internalization efficacy
same,internalization efficacy,[3],good internalization efficacy
same,tumor inhibition rate,[4]; 0.75 mg/kg,91.08% and 92.09%
same,tumor inhibition rate,[4]; 1.5 mg/kg,97.15% and 97.71%
